Test results from PubChem BioAssay (NCI).
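Tested at 5 concentrations; 48 h exposure; 96-well plates; endpoints linearly interpolated, else capped at highest concentration. GI50 is the concentration that inhibits growth by half. TGI denotes the concentration required for complete inhibition of growth.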

How the values were obtained:
Test in all cases: NCI tumour cell line growth inhibition, 48 h
PC-3 prostate = tested on: PC-3 prostate
MOLT-4 leukemia = tested on: MOLT-4 leukemia
SK-MEL-28 melanoma = tested on: SK-MEL-28 melanoma
KM12 colon = tested on: KM12 colon
MDA-MB-231 breast = tested on: MDA-MB-231 breast
OVCAR-4 ovarian = tested on: OVCAR-4 ovarian
HL-60(TB) leukemia = tested on: HL-60(TB) leukemia
RPMI-8226 leukemia = tested on: RPMI-8226 leukemia
SF-295 CNS = tested on: SF-295 CNS
NCI-H522 lung = tested on: NCI-H522 lung
COLO 205 colon = tested on: COLO 205 colon
HOP-92 NSCLC = tested on: HOP-92 NSCLC
NCI-H226 lung = tested on: NCI-H226 lung
HCT-116 colon = tested on: HCT-116 colon
OVCAR-5 ovarian = tested on: OVCAR-5 ovarian
OVCAR-3 ovarian = tested on: OVCAR-3 ovarian
RXF 393 renal = tested on: RXF 393 renal
SN12C renal = tested on: SN12C renal
DU-145 prostate = tested on: DU-145 prostate
IGROV1 ovarian = tested on: IGROV1 ovarian
CAKI-1 renal = tested on: CAKI-1 renal
SW-620 colon = tested on: SW-620 colon
MCF7 breast = tested on: MCF7 breast
K-562 leukemia = tested on: K-562 leukemia
ACHN renal = tested on: ACHN renal
LOX IMVI melanoma = tested on: LOX IMVI melanoma
UO-31 renal = tested on: UO-31 renal
SR leukemia = tested on: SR leukemia
HCT-15 colon = tested on: HCT-15 colon
NCI/ADR-RES ovarian = tested on: NCI/ADR-RES ovarian
SNB-19 CNS = tested on: SNB-19 CNS
U251 CNS = tested on: U251 CNS
NCI-H23 lung = tested on: NCI-H23 lung
UACC-257 melanoma = tested on: UACC-257 melanoma
UACC-62 melanoma = tested on: UACC-62 melanoma
OVCAR-8 ovarian = tested on: OVCAR-8 ovarian
HT29 colon = tested on: HT29 colon
TK-10 renal = tested on: TK-10 renal
EKVX NSCLC = tested on: EKVX NSCLC
SF-539 CNS = tested on: SF-539 CNS
NCI-H460 lung = tested on: NCI-H460 lung
SK-OV-3 ovarian = tested on: SK-OV-3 ovarian
A498 renal = tested on: A498 renal
786-0 renal = tested on: 786-0 renal
HCC-2998 colon = tested on: HCC-2998 colon
HOP-62 NSCLC = tested on: HOP-62 NSCLC
HS 578T breast = tested on: HS 578T breast
SK-MEL-2 melanoma = tested on: SK-MEL-2 melanoma
BT-549 breast = tested on: BT-549 breast
SK-MEL-5 melanoma = tested on: SK-MEL-5 melanoma
MALME-3M melanoma = tested on: MALME-3M melanoma
SNB-75 CNS = tested on: SNB-75 CNS
SF-268 CNS = tested on: SF-268 CNS
T-47D breast = tested on: T-47D breast
MDA-MB-435 = tested on: MDA-MB-435
CCRF-CEM leukemia = tested on: CCRF-CEM leukemia
A549 NSCLC = tested on: A549 NSCLC
M14 melanoma = tested on: M14 melanoma

Question: What does the source list for `Cc1[nH]c2ccccc2c1CCCO`?
Answer: GI50 (PC-3 prostate): > 100 µM; TGI (PC-3 prostate): > 100 µM; GI50 (MOLT-4 leukemia): > 100 µM; TGI (MOLT-4 leukemia): > 100 µM; GI50 (SK-MEL-28 melanoma): > 100 µM; TGI (SK-MEL-28 melanoma): > 100 µM; GI50 (KM12 colon): > 100 µM; TGI (KM12 colon): > 100 µM; GI50 (MDA-MB-231 breast): > 100 µM; TGI (MDA-MB-231 breast): > 100 µM; GI50 (OVCAR-4 ovarian): > 100 µM; TGI (OVCAR-4 ovarian): > 100 µM; GI50 (HL-60(TB) leukemia): > 100 µM; TGI (HL-60(TB) leukemia): > 100 µM; GI50 (RPMI-8226 leukemia): > 100 µM; TGI (RPMI-8226 leukemia): > 100 µM; GI50 (SF-295 CNS): > 100 µM; TGI (SF-295 CNS): > 100 µM; GI50 (NCI-H522 lung): > 100 µM; TGI (NCI-H522 lung): > 100 µM; GI50 (COLO 205 colon): > 100 µM; TGI (COLO 205 colon): > 100 µM; GI50 (HOP-92 NSCLC): > 100 µM; TGI (HOP-92 NSCLC): > 100 µM; GI50 (NCI-H226 lung): > 100 µM; TGI (NCI-H226 lung): > 100 µM; GI50 (HCT-116 colon): > 100 µM; TGI (HCT-116 colon): > 100 µM; GI50 (OVCAR-5 ovarian): > 100 µM; TGI (OVCAR-5 ovarian): > 100 µM; GI50 (OVCAR-3 ovarian): > 100 µM; TGI (OVCAR-3 ovarian): > 100 µM; GI50 (RXF 393 renal): > 100 µM; TGI (RXF 393 renal): > 100 µM; GI50 (SN12C renal): > 100 µM; TGI (SN12C renal): > 100 µM; GI50 (DU-145 prostate): > 100 µM; TGI (DU-145 prostate): > 100 µM; GI50 (IGROV1 ovarian): 82.9 µM; TGI (IGROV1 ovarian): > 100 µM; GI50 (CAKI-1 renal): > 100 µM; TGI (CAKI-1 renal): > 100 µM; GI50 (SW-620 colon): > 100 µM; TGI (SW-620 colon): > 100 µM; GI50 (MCF7 breast): > 100 µM; TGI (MCF7 breast): > 100 µM; GI50 (K-562 leukemia): > 100 µM; TGI (K-562 leukemia): > 100 µM; GI50 (ACHN renal): > 100 µM; TGI (ACHN renal): > 100 µM; GI50 (LOX IMVI melanoma): > 100 µM; TGI (LOX IMVI melanoma): > 100 µM; GI50 (UO-31 renal): 75.2 µM; TGI (UO-31 renal): > 100 µM; GI50 (SR leukemia): > 100 µM; TGI (SR leukemia): > 100 µM; GI50 (HCT-15 colon): > 100 µM; TGI (HCT-15 colon): > 100 µM; GI50 (NCI/ADR-RES ovarian): > 100 µM; TGI (NCI/ADR-RES ovarian): > 100 µM; GI50 (SNB-19 CNS): > 100 µM; TGI (SNB-19 CNS): > 100 µM; GI50 (U251 CNS): > 100 µM; TGI (U251 CNS): > 100 µM; GI50 (NCI-H23 lung): > 100 µM; TGI (NCI-H23 lung): > 100 µM; GI50 (UACC-257 melanoma): > 100 µM; TGI (UACC-257 melanoma): > 100 µM; GI50 (UACC-62 melanoma): > 100 µM; TGI (UACC-62 melanoma): > 100 µM; GI50 (OVCAR-8 ovarian): > 100 µM; TGI (OVCAR-8 ovarian): > 100 µM; GI50 (HT29 colon): > 100 µM; TGI (HT29 colon): > 100 µM; GI50 (TK-10 renal): > 100 µM; TGI (TK-10 renal): > 100 µM; GI50 (EKVX NSCLC): > 100 µM; TGI (EKVX NSCLC): > 100 µM; GI50 (SF-539 CNS): > 100 µM; TGI (SF-539 CNS): > 100 µM; GI50 (NCI-H460 lung): > 100 µM; TGI (NCI-H460 lung): > 100 µM; GI50 (SK-OV-3 ovarian): > 100 µM; TGI (SK-OV-3 ovarian): > 100 µM; GI50 (A498 renal): > 100 µM; TGI (A498 renal): > 100 µM; GI50 (786-0 renal): > 100 µM; TGI (786-0 renal): > 100 µM; GI50 (HCC-2998 colon): > 100 µM; TGI (HCC-2998 colon): > 100 µM; GI50 (HOP-62 NSCLC): > 100 µM; TGI (HOP-62 NSCLC): > 100 µM; GI50 (HS 578T breast): 54.9 µM; TGI (HS 578T breast): > 100 µM; GI50 (SK-MEL-2 melanoma): > 100 µM; TGI (SK-MEL-2 melanoma): > 100 µM; GI50 (BT-549 breast): > 100 µM; TGI (BT-549 breast): > 100 µM; GI50 (SK-MEL-5 melanoma): > 100 µM; TGI (SK-MEL-5 melanoma): > 100 µM; GI50 (MALME-3M melanoma): > 100 µM; TGI (MALME-3M melanoma): > 100 µM; GI50 (SNB-75 CNS): > 100 µM; TGI (SNB-75 CNS): > 100 µM; GI50 (SF-268 CNS): > 100 µM; TGI (SF-268 CNS): > 100 µM; GI50 (T-47D breast): > 100 µM; TGI (T-47D breast): > 100 µM; GI50 (MDA-MB-435): > 100 µM; TGI (MDA-MB-435): > 100 µM; GI50 (CCRF-CEM leukemia): > 100 µM; TGI (CCRF-CEM leukemia): > 100 µM; GI50 (A549 NSCLC): > 100 µM; TGI (A549 NSCLC): > 100 µM; GI50 (M14 melanoma): > 100 µM; TGI (M14 melanoma): > 100 µM
